Columns and labels:
Format in all cases: in vivo
[1] = system: barnyardgrass (Echinochloa crus-galli); experiment: Test B flooded paddy test; conditions: Echinochloa crus-galli, 250 g ai/ha, Flood; 0 to 100 scale where 0 is no effect and 100 is complete control; read-out: Barnyardgrass plant response rating
Summary of the method: (§1)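 2-leaf plants; pots flooded 3 cm over soil; cpd added to paddy water; depth held; greenhouse 13–15 d; visual rating vs controls, 0 = no effect, 100 = complete control.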

[2] = system: ducksalad (Heteranthera limosa); experiment: Test B flooded paddy test; conditions: Heteranthera limosa, 250 g ai/ha, Flood; 0 to 100 scale where 0 is no effect and 100 is complete control; read-out: Ducksalad plant response rating
Summary of the method: as §1

rice (Oryra sativa) = experiment: Test B flooded paddy test; conditions: Oryza sativa, 250 g ai/ha, Flood; 0 to 100 scale where 0 is no effect and 100 is complete control; read-out: Rice plant response rating
Summary of the method: as §1

[3] = system: sedge, umbrella (small-flower umbrella sedge, Cyperus difformis); experiment: Test B flooded paddy test; conditions: Cyperus difformis, 250 g ai/ha, Flood; 0 to 100 scale where 0 is no effect and 100 is complete control; read-out: Sedge, Umbrella plant response rating
Summary of the method: as §1

[4] = system: ryegrass, Italian (Italian ryegrass, Lolium multiflorum); experiment: Test A postemergence; conditions: Lolium multiflorum, post-emergence, 240 h, Postemergence, read-out: Ryegrass, Italian plant response rating (0 to 100 scale)
Summary of the method: (§2)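 Preemergence directed soil spray on seeded pots, or postemergence application to plants 2–10 cm, one- to two-leaf. Solvent mixture non-phytotoxic, with surfactant. Scored ~10 d later, visually, 0–100 vs untreated.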

[5] = system: ragweed (common ragweed, Ambrosia elatior); experiment: Test A postemergence; conditions: Ambrosia artemisiifolia, post-emergence, 240 h, Postemergence, read-out: Ragweed plant response rating (0 to 100 scale)
Summary of the method: as §2

[6] = system: blackgrass (Alopecurus myosuroides); experiment: Test A postemergence; conditions: Alopecurus myosuroides, post-emergence, 240 h, Postemergence, read-out: Blackgrass plant response rating (0 to 100 scale)
Summary of the method: as §2

[7] = system: barnyardgrass (Echinochloa crus-galli); experiment: Test A postemergence; conditions: Echinochloa crus-galli, post-emergence, 240 h, Postemergence
Summary of the method: as §2

corn (Zea mays) = experiment: Test A postemergence; conditions: Zea mays, post-emergence, 240 h, Postemergence, read-out: Corn plant response rating (0 to 100 scale)
Summary of the method: as §2

[8] = system: wheat (Triticum aestivum); experiment: Test A postemergence; conditions: Triticum aestivum, post-emergence, 240 h, Postemergence, read-out: Wheat plant response rating (0 to 100 scale)
Summary of the method: as §2

[9] = system: Galium (catchweed bedstraw, Galium aparine); experiment: Test A postemergence; conditions: Galium, post-emergence, 240 h, Postemergence, read-out: Galium plant response rating (0 to 100 scale)
Summary of the method: as §2

[10] = system: pigweed (Amaranthus retroflexus); experiment: Test A postemergence; conditions: Amaranthus retroflexus, post-emergence, 240 h, Postemergence, read-out: Pigweed plant response rating (0 to 100 scale)
Summary of the method: as §2

[11] = system: giant foxtail (Setaria faberii); experiment: Test A postemergence; conditions: Setaria faberi, post-emergence, 240 h, Postemergence, read-out: Foxtail, Giant plant response rating (0 to 100 scale)
Summary of the method: as §2

Kochia (Kochia scoparia) [12] = experiment: Test A postemergence; conditions: Bassia scoparia, post-emergence, 240 h, Postemergence, read-out: Kochia plant response rating (0 to 100 scale)
Summary of the method: as §2

[13] = system: ryegrass, Italian (Italian ryegrass, Lolium multiflorum); experiment: Test A preemergence; conditions: Lolium multiflorum, pre-emergence, 240 h, 0 to 100 scale where 0 is no effect and 100 is complete control, read-out: Ryegrass, Italian plant response rating
Summary of the method: as §2

[14] = system: ragweed (common ragweed, Ambrosia elatior); experiment: Test A preemergence; conditions: Ambrosia artemisiifolia, pre-emergence, 240 h, 0 to 100 scale where 0 is no effect and 100 is complete control, read-out: Ragweed plant response rating
Summary of the method: as §2

[15] = system: barnyardgrass (Echinochloa crus-galli); experiment: Test A preemergence; conditions: Echinochloa crus-galli, pre-emergence, 240 h, 0 to 100 scale where 0 is no effect and 100 is complete control, read-out: Barnyardgrass plant response rating
Summary of the method: as §2

[16] = system: pigweed (Amaranthus retroflexus); experiment: Test A preemergence; conditions: Amaranthus retroflexus, pre-emergence, 240 h, 0 to 100 scale where 0 is no effect and 100 is complete control, read-out: Pigweed plant response rating
[17] = system: giant foxtail (Setaria faberii); experiment: Test A preemergence; conditions: Setaria faberi, pre-emergence, 240 h, 0 to 100 scale where 0 is no effect and 100 is complete control, read-out: Foxtail, Giant plant response rating
Summary of the method: as §2

Kochia (Kochia scoparia) [18] = experiment: Test A preemergence; conditions: Bassia scoparia, pre-emergence, 240 h, 0 to 100 scale where 0 is no effect and 100 is complete control, read-out: Kochia plant response rating
Summary of the method: as §2

[19] = 125 g ai/ha, visual rating about 10 d after treatment
[20] = 31 g ai/ha, 0 is no effect, 100 is complete control
[21] = 125 g ai/ha, preemergence, visual injury rating, approximately 10 d

Work on `CN1C[C@H](c2csc3c2CCOC3)[C@@H](C(=O)Nc2cccc(F)c2F)C1=O` [Compound 1268] yielded a pest or weed control at 250 g/ha [1] of 85%, a pest or weed control at 250 g/ha [2] of 95% and a pest or weed control at 250 g/ha (rice (Oryra sativa)) of 20%. For the same compound, the pest or weed control at 250 g/ha [3] was 0%, the pest or weed control at 125 g/ha [4, 19] was 20% and the pest or weed control at 31 g/ha [4, 20] was 0%. For the same compound, the pest or weed control at 125 g/ha [5, 19] was 0%, the pest or weed control at 31 g/ha [5, 20] was 0% and the pest or weed control at 125 g/ha [6, 19] was 0%. It also gave a pest or weed control at 31 g/ha [6, 20] of 0%, a pest or weed control at 125 g/ha ([7]; 125 g ai/ha, visual rating about 10 d after treatment, read-out: Barnyardgrass plant response rating (0 to 100 scale, 0 no effect, 100 complete control)) of 90% and a pest or weed control at 31 g/ha ([7]; 31 g ai/ha, 0 is no effect, 100 is complete control, read-out: Barnyardgrass plant response rating (0 to 100 scale)) of 80%. It also gave a plant injury at 125 g/ha (corn (Zea mays); [19]) of 0%, a plant injury at 31 g/ha (corn (Zea mays); [20]) of 0% and a plant injury at 125 g/ha [8, 19] of 0%. It also gave a plant injury at 31 g/ha [8, 20] of 0%, a pest or weed control at 125 g/ha [9, 19] of 0% and a pest or weed control at 31 g/ha [9, 20] of 0%. It also gave a pest or weed control at 125 g/ha [10, 19] of 0%, a pest or weed control at 31 g/ha [10, 20] of 0% and a pest or weed control at 125 g/ha [11, 19] of 90%. The pest or weed control at 31 g/ha [11, 20] was 50%, the pest or weed control at 125 g/ha (Kochia (Kochia scoparia) [12]; [19]) was 0% and the pest or weed control at 31 g/ha (Kochia (Kochia scoparia) [12]; [20]) was 0%. For the same compound, the pest or weed control at 31 g/ha ([13]; 31 g ai/ha, Preemergence) was 0%, the pest or weed control at 125 g/ha [13, 21] was 20% and the pest or weed control at 31 g/ha ([14]; 31 g ai/ha, Preemergence) was 0%. The pest or weed control at 125 g/ha [14, 21] was 0%, the pest or weed control at 31 g/ha ([15]; 31 g ai/ha, Preemergence) was 90% and the pest or weed control at 125 g/ha [15, 21] was 90%. For the same compound, the pest or weed control at 31 g/ha ([16]; 31 g ai/ha, Preemergence) was 0%, the pest or weed control at 125 g/ha [16, 21] was 0% and the pest or weed control at 31 g/ha ([17]; 31 g ai/ha, Preemergence) was 70%. The pest or weed control at 125 g/ha [17, 21] was 90%, the pest or weed control at 31 g/ha (Kochia (Kochia scoparia) [18]; 31 g ai/ha, Preemergence) was 0% and the pest or weed control at 125 g/ha (Kochia (Kochia scoparia) [18]; [21]) was 0%.

Source: patent publication US12077503B2, “Substituted cyclic amides and their use as herbicides” (FMC CORPORATION, priority 2015, dated 2024)
